Measurements as given in patent publication US5753615A, “Neuropeptides and their use as insecticides” (Queen Mary and Westfield College, priority 1993, dated 1998).
Non-standard residues stand in square brackets, D forms with d. No end group written: not given here. pGlu = O=C1CC[C@@H](C(=O)O)N1

Tests used:
[1] = test system: corpora allata of the cockroach Diploptera punctata; format: cell-based
Description: Thus, it causes maximum inhibition of JH at a concentration of 1 nM, with a 50% inhibition (ED50) being achieved at 0.1 nM.

[2] = test system: corpora allata of the cockroach Diploptera punctata; settings: given 'in comparison'; known allatostatins of the literature; test system not restated; cited from earlier work

Substance	50% inhibition (ED50) of JH production [1]	ED50 (inhibition of JH production), comparison values [2]
GPPYDFGM-NH2 [Callatostatin 5, Gly-Pro-Pro-Tyr-Asp-Phe-Gly-Met-NH2]	0.1 nM	
[pGlu]VRFRQCYFNPISCF-OH (cysteine pairing not given here) [allatostatin of Manduca sexta]		2 nM
